Tests used:
[1] = system: H4-IIE Cells; experiment: Glucose production in cultured H4-IIE cells; type: cell-based, rat; conditions: glucose concentration in medium relative to untreated cells; 5 μM peptide, 24 h
How it was run: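 Rat H4-IIE hepatoma cells primed overnight in glucose-free DMEM with 2 mM pyruvate and 10 mM lactate, then treated 24 h at 37 °C with 5 μM peptide (0.1% DMSO; concentration assumes ~2000 Da). Medium glucose measured colorimetrically at 570 nm. Values are percent of untreated-cell glucose production; 0.5-1 nM insulin served as inhibitor reference.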

[2] = system: C2C12 Cells; experiment: Glucose utilization in cultured C2C12 cells (myotubes); type: cell-based, mouse; conditions: glucose concentration in medium relative to untreated cells; 5 μM peptide, 22 h
How it was run: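 Differentiated mouse myotubes (5 days in 2% horse serum) serum-starved 5 h, then treated 22 h at 37 °C with peptide at 5 μM final (0.1% DMSO) in low-glucose (1 g/L) DMEM. Glucose remaining in medium measured colorimetrically at 570 nm. Expressed as percent of untreated control, from 2–3 experiments in triplicate.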

[3] = system: 3T3-L1 Mouse Adipocytes; experiment: Free fatty acid levels in cultured 3T3-L1 mouse adipocytes (isoproterenol stimulated); type: cell-based; conditions: free fatty acid in medium; 5 μM peptide, 20-22 h pre-incubation then 3 h with 0.1 nM isoproterenol; isoproterenol alone = 100%
How it was run: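 3T3-L1 cells differentiated 12 days, insulin withdrawn, then peptides added on day 13 at 5 μM (0.1% DMSO) for 20-22 h at 37° C. After 3 h in assay buffer, medium free fatty acids read at 540 nm. Values expressed as percent of 0.1 nM isoproterenol-alone control.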

| Substance | Percent of Control Activity [1] [%] | Percent of Control Activity [2] [%] | Percent of Isoproterenol Control Activity [3] [%] |
| --- | --- | --- | --- |
| 168 (MYCNWDCSGE) [compound 168] | 120 | 103 | 108 |
| 169 (MYLNGTCSAS) [compound 169] | 109 | 107 | 110 |
| 170 (MYNYAKAPTL) [compound 170] | 109 | 106 | 95 |
| 171 (MYRHLQQTLMKATK) [compound 171] | 100 | 110 | 104 |
| 172 (MYTNKQCSTSNYY) [compound 172] | 111 | 106 | 94 |
| 173 (MYTPTNNVQPVTTTNQRP) [compound 173] | 103 | 95 | 114 |
| 174 (MYYSDGYWGVSWGMGV) [compound 174] | 110 | 93 | 105 |
| 176 (MKNIEAPLAW) [compound 176] | 108 | 103 | 95 |
| 177 (MRMGASIGSTTRLSTS) [compound 177] | 111 | 91 | 94 |
| 178 (MVQTVSISWASEMLVLVSFVVSV) [compound 178] | 108 | 99 | 90 |
| 179 (MSSSMMGEVASC) [compound 179] | 100 | 105 | 102 |
| 180 (MVVGSWCWSLSWVVGMR) [compound 180] | 106 | 103 | 101 |
| 181 (MCHWAGGASNTGDA) [compound 181] | 109 | 107 | 103 |
| 182 (MFAVSMMWSLE) [compound 182] | 113 | 98 | 92 |
| 183 (MMKVDATMDFT) [compound 183] | 121 | 101 | 94 |
| 184 (MASAKGCSSP) [compound 184] | 118 | 106 | 104 |
| 185 (MLVMLEVMFLVN) [compound 185] | 119 | 92 | 86 |
| 186 (MIINDEYWLVVLVMVHCPESMLLK) [compound 186] | 115 | 94 | 105 |
| 187 (AYEGCCYSCKQEDNADVSGFWVEK) [compound 187] | 113 | 110 | 102 |
| 188 (DWSNWVWGVQLYVWDFLGSGCWAW) [compound 188] | 125 | 113 | 104 |
| 189 (FEELINVWVWVYMSQWEFYDGPCN) [compound 189] | 116 | 98 | 95 |
| 190 (MYHSENSMMDHVTNNATGMNIMEK) [compound 190] | 118 | 107 | 101 |
| 191 (LGWGWPGGWVWGGGFMVEERWWEL) [compound 191] | 111 | 95 | 101 |
